# Test results from patent publication US20060252683A1, “Preparation of a peptide compound (SYRAPRO-2000) and its use for the activation of protein phosphatase-2A1 enzyme” (priority 2005, published 2006).
# Biological target: protein phosphatase-2A1 (Homo sapiens, UniProt P67775)
# Test: Assay of purified protein phosphatase-2A1 in vitro with 32P-labeled phosphorylase a as substrate
# Format: biochemical
# Design: Protein phosphatase-2A1 purified from CD^4+ T cells as described in materials and method; endogenous in cells; host or cells: Jurkat cells; enzyme purified by DEAE Sepharose, Sephacryl S-300 HR and poly-L-lysine Agarose
# Settings: purified enzyme from Jurkat cells, in vitro
# Protocol: Protein phosphatase-2A1 purified from CD^4+ T cells as described in materials and method was assayed in the presence of various concentrations of SYRAPRO-2000. 100 percent protein phosphatase-2A1 activity is equivalent to 0.005 unit. Similar result were obtained in 3 independent experiments.
# The effect of synthesized SYRAPRO-2000 on purified protein phosphatase-2A1 can be determined in vitro. Protein phosphatase-2A1 can be assayed using ^32P-labeled phosphorylase a as substrate in the presence of various concentrations of SYRAPRO-2000. Protein phosphatase-2A1 is activated in the presence of SYRAPRO-2000.
# Protein phosphatase-1 was assayed as described in (Cohen 1988). Protein phosphatase-2B was assayed as described in (Tung 1986). Protein phosphatase-2C was assayed as described in (Tung 1986) except Ca^2+ and calmodulin were omitted. The assay of protein phosphatases-2A1 consisted of 0.02 ml of enzyme solution in 50 mM Imidazole-Cl pH 7.2, 0.2 mM EGTA, 0.1% (v/v) 2-mercaptoethanol and 1 mg/ml bovine serum albumin (Assay Buffer), 0.01 ml of inhibitor-2 at 600 nM in Assay Buffer, 0.01 ml of protamine at 60 μg/ml in Assay Buffer or 0.01 ml of SYRAPRO-2000 at different concentrations in Assay Buffer or 0.01 ml of Assay Buffer alone, 0.02 ml of ^32P-labeled phosphorylase a at 3 mg/ml in Assay Buffer containing 15 mM caffeine. The assay components were preincubated for 10 minutes prior to initiating the reaction with ^32P-labeled phosphorylase a. One unit of protein phosphatase activity is that amount of enzyme which catalyzes the release of 1 nmol of phosphate from ^32P-labeled substrate per min at 30° C.
# Jurkat cells, a human transformed CD^4+ T cell line, were grown in grown in RPMI 1680 supplemented with 5% (v/v) fetal bovine serum at 37° C. in 95% air/5% CO2 in a humidified incubator. 2.4 liters of cells were collected by centrifugation at 4200 rpm in a low speed centrifuge for 10 minutes. The cells were homogenized in 80 ml of 50 mM Imidazole-Cl pH 7.2, 2 mM EGTA, 2 mM EDTA, 0.1% (v/v) 2-mercaptoethanol, 0.2 mM PMSF, 1 mM benzamidine, 4 μg/ml aprotinin, 4 μg/ml leupeptin, 4 μg/ml pepstatin, 0.1 mM TLCK, 0.1 mM TPCK, 1 mM sodium orthovanadate and 10% (v/v) glycerol by 40 strokes in a glass hand held homogenizer. The homogenate was centrifuged at 29000 rpm in a high speed centrifuge for 30 minutes. The supernatant (i.e the extract) was collected and loaded onto a DEAE Sepharose column (1.5×6 cm) equilibrated in 25 mM Imidazole-Cl pH 7.2, 0.2 mM EGTA, 0.1% (v/v) 2-mercaptoethanol, 0.1 mM PMSF, 1 mM benzamidine and 10% (v/v) glycerol (Buffer A). The column was washed with 50 ml of Buffer and then eluted with a 200 ml linear gradient of Buffer A to Buffer A plus 0.4 M NaCl. The eluted fractions were then assayed for phosphorylase phosphatase activity in the presence of 100 nM inhibitor-2 and 10 μg/ml of protamine. Two major peaks of phosphorylase phosphatase were observed. The first and second peak represent protein phosphatase-2A0 and protein phosphatase-2A1 respectively. […] The major activity eluting as a species of apparent molecular mass 300 kDa was collected, diluted four fold in Buffer A and loaded onto a poly-L-lysine Agarose Column (1.5×4 cm) equilibrated in Buffer A. The column was washed with 50 ml of Buffer A and then eluted with a 200 ml linear gradient of Buffer A to Buffer A plus 0.5 M NaCl. The active fractions eluting at ˜0.30 M NaCl salt concentration was pooled, concentrated by vacuum dialysis and stored at ^−20° C. in 50 mM Imidazole-Cl pH 7.2, 0.2 mM EGTA in the presence of 50% (v/v) glycerol. The highly purified enzyme consisted of the characteristic subunits of protein phosphatase-2A1, namely the A, B and C subunits. […] It is difficult to determine the activity of protein phosphatase-2A1 in CD^4+ T cell extract. However, assuming that it represented about 66 percent of total type 2A protein phosphatase activity in CD^4+ T cell extract, the specific activity of the enzyme in extract was estimated to be 0.3 unit/mg. […]
# Sequence of protein phosphatase-2A1 (P67775 whole entry): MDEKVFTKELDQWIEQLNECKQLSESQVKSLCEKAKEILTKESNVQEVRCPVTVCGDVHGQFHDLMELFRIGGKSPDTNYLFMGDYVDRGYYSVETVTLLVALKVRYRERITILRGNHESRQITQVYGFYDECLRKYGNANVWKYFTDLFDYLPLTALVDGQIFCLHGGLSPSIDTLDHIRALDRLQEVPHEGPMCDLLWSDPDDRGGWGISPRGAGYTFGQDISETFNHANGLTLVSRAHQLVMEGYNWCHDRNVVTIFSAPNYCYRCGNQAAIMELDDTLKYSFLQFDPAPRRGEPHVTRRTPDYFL
# Sequence of protein phosphatase-2A1 (P30153 whole entry partner): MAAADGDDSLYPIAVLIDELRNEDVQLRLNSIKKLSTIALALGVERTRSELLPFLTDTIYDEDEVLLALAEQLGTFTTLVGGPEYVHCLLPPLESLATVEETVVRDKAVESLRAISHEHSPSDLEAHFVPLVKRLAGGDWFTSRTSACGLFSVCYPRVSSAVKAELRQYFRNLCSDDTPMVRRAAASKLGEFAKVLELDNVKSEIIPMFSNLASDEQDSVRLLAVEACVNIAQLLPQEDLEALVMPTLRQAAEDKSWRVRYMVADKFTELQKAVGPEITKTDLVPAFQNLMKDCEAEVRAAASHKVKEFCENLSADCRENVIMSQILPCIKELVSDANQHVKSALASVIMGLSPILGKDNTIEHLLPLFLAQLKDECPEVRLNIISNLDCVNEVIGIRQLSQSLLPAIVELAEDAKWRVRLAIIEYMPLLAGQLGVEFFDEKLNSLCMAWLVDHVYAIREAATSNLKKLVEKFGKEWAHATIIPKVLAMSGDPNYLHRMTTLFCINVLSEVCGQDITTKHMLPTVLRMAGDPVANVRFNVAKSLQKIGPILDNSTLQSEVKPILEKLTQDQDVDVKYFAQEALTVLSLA
# Sequence of protein phosphatase-2A1 (P63151 whole entry partner): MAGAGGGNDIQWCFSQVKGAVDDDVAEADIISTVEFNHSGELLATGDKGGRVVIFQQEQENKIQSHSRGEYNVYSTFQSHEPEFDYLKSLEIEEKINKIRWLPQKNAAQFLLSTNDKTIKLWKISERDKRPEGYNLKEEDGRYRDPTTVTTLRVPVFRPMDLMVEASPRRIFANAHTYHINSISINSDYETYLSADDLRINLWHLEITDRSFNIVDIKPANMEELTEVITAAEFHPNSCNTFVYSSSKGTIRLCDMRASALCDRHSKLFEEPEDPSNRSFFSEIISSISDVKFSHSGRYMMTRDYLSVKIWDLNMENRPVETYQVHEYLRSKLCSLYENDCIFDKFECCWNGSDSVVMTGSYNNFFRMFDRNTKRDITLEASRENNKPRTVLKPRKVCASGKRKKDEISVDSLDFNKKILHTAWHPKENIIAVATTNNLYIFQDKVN
smiles,measurement,setting,value
CC[C@H](C)[C@H](NC(=O)[C@H](CCCNC(=N)N)NC(=O)[C@H](CO)NC(=O)[C@H](Cc1c[nH]cn1)NC(=O)[C@H](CCCNC(=N)N)NC(=O)[C@H](CS)NC(=O)CNC(=O)[C@@H](NC(=O)[C@H](CCCNC(=N)N)NC(=O)[C@H](Cc1ccccc1)NC(=O)[C@@H](N)Cc1c[nH]cn1)[C@@H](C)CC)C(=O)NCC(=O)N[C@H](C(=O)N[C@H](C(=O)N[C@@H](CCCNC(=N)N)C(=O)N[C@@H](CCC(N)=O)C(=O)N[C@@H](CCCNC(=N)N)C(=O)N[C@@H](CCCNC(=N)N)C(=O)N[C@@H](C)C(=O)N[C@@H](CCCNC(=N)N)C(=O)N[C@@H](CC(N)=O)C(=O)NCC(=O)N[C@@H](C)C(=O)N[C@@H](CO)C(=O)N[C@@H](CCCNC(=N)N)C(=O)N[C@@H](CO)C(=O)O)[C@@H](C)O)C(C)C [SYRAPRO-2000],activation of protein phosphatase-2A1,,7 fold
same,concentration above which there was inhibition of protein phosphatase-2A1 (biphasic effect),,above 1000 nM
same,EC50,read-out: half maximal activation of protein phosphatase-2A1,~300 nM
